The record followed here is patent US6867179B1, “Methods of inducing hair growth and coloration” (Trustees of Boston University, priority 1994, dated 2005).

Data set [1] relates to p75 NGF-R. The experiment in a line: Northern blot of p75 NGF-R mRNA in NGF-supplemented melanocytes. In kind it is cell-based, human.
In data set [2] the test system is MM4 cells. Description: MM4 cell yields after UV or sham irradiation with growth factor supplementation. In kind it is cell-based, human. As to conditions: UV 10 mJ/cm^2, 50 ng/ml NGF, 4 experiments. On the procedure: Melanocytes or MM4 cells were plated in 60 mm diameter tissue culture dishes. Melanocytes were maintained in Medium 199 supplemented with 7% fetal bovine serum (FBS), 10 ng/ml epidermal growth factor (Collaborative Research), […] (Sigma), […] (Collaborative Research), […] (Sigma), 1.4×10^−6 M hydrocortisone (Calbiochem), […] (Calbiochem), and 10 ng/ml basic fibroblast growth factor (Collaborative Research) (basal melanocyte medium). MM4 cells were maintained in 55.3% DME, 27.6% L15, 15% FBS, 1% nonessential amino acids (GIBCO BRL), 2 mM glutamine and 10 µg/ml insulin. After 24 hours, medium was replaced by phosphate buffered saline (PBS) and cells were irradiated using a 1 KW xenon arc solar simulator (XMN 1000-21, Optical Radiation Corp., Azuza, Calif.) with 5, 10, or 25 mJ/cm^2 UV through the petri dish plastic cover. Irradiance was adjusted to 4×10^−5 UV cm^−2 and metered with a research radiometer (model IL1700A, International Light, Newburyport, Mass.) fitted with a UVB probe at 285 Å 5 nm. After UV irradiation, cells were maintained in their respective media without FBS for 2 days (MM4 cells) or 3 days (melanocytes) and processed as indicated. Sham irradiated control cultures were handled identically but laced under a dark cloth adjacent to the UV beam.
FIGS. 2B and 2D show MM4 cell yields 24-72 hours after a single UV irradiation of 10 mJ/cm^2. FIGS. 2C and 2e show MM4 cell yields 24-72 hours after sham irradiation. Cells in FIGS. 2B and 2C were supplemented with 50 ng/ml NGF or diluent alone. Cells in FIGS. 2D and 2E were supplemented with 50 ng/ml bFGF or diluent alone.
Melanocytes or MM4 cells were plated as described in Example 1. After irradiation, melanocytes were maintained in basal melanocyte medium lacking FBS and hydrocortisone, with 50 ng/ml NGF or diluent alone (melanocyte medium). MM4 cells were maintained in DME supplemented with 50 ng/ml NGF or diluent alone.

Data set [3] has as its target T1, p75^NTR (Homo sapiens, UniProt P08138).
T1 sequence (P08138 29-427): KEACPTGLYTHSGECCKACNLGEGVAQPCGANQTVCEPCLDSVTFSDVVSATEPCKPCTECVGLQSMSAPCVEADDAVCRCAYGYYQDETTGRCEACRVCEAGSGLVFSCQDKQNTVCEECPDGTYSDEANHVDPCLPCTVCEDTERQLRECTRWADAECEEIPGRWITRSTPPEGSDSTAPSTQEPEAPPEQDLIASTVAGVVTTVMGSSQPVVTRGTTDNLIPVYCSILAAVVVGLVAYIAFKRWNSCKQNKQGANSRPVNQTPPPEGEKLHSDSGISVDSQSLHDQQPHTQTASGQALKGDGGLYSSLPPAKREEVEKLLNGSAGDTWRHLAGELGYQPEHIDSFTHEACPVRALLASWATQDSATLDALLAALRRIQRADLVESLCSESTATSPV
Description: Competition for 125I beta-amyloid 1-40 binding to p75NTR-NIH 3T3 cells. On the set-up: expressed in transfected cells; host or cells: NIH 3T3 fibroblasts (p75^NTR NIH 3T3 cells, Dobrowsky et al. 1994). On the procedure: p75^NTR-NIH 3T3 cells were maintain in DMEM supplemented with 10% FBS in the presence of penicillin (45 ng/ml), streptomycin (68 ng/ml), and hygromycin B (17.5 ng/ml). […] After incubation, 1 mM of disuccinimidyl suberate was added for 30 minutes. Following centrifugation cells were lysed with RIPA buffer (50 mM Tris HCl, pH 8.0, […] NaCl 0.5% sodium deoxycholate 4, 5 mM MgCl2, 1% Triton x-100, 1 mM phenylmethylsulfonylfluoride [PMSF], and 1 microg/ml aprotinin), sonicated for 1-3 seconds and immunoprecipitated with anti p75^NTR antibodies (mouse monoclonal IgG1, Cedarlane Laboratories Ltd., Ontario, Canada) or mouse IgG as control for 16 hours at […] in the presence of 15 microl of protein G plus protein A agarose and 1M NaCl adjusted to pH 8.0. After several washes with 20 mM Tris HCl, pH 8.0, 1M NaCl, 5 mM MgCl2, 0.2% Triton X-100 and 1 mM PMSF, immunoprecipitates were separated over 8% PAGE and subjected to autoradiography. A band of 75-80 kD molecular weight was present only in lysates inmmunoprecipitated with anti p75^NTR antibodies and not lysates inmmunoprecipitated with irrelevant mouse IgG.
p75^NTR-NIH 3T3 cells were incubated for 2 hours at […] in binding medium (DMEM, 10 mM hepes, 0.1 mg/ml cytochrome C, 0.01% Tween 80, 1 mg/ml BSA) with ^125I beta-amyloid 1-40 and increasing concentrations of NGF (0-100 ng/ml). […]

In the case of “NGF: nerve growth factor, neurotrophin ligand of p75 NGF-R and trk”, in data set [1], the “p75 NGF-R mRNA transcript levels versus diluent controls” value is listed as “several-fold higher”. In data set [2], the “Cell yields of MM4 cells versus diluent alone” value is “significantly higher”. Moreover, the “Competition with beta-amyloid for p75NTR binding” value in data set [3] is recorded as “could be competed off by NGF”. The “Maximum inhibition of 125I beta-amyloid binding” value in data set [3] (NGF 100 ng/ml, 2 hours) worked out at 38%.
